Laboratory results published in patent US20230059009A1, “INHIBITORS OF LIN28 AND METHODS OF USE THEREOF” (The Regents of the University of California, priority 2019, published 2023).

What was measured:
[1] = test system: LSCs; assay: Colony forming capacity (CFC) of iMLL-AF9 LT-HSC derived LSCs; format: cell-based, mouse; settings: 200 nM Ara-C or 30 μM 1632, 48 h
From the text: In addition, Lin28 was independently found to be a key driver in MLL-associated leukemias (56). In order to further characterize the role of Lin28/let-7 in regulating AML, LSC proliferation and therapy resistance in vivo, we used a doxycycline (DOX) inducible, transgenic mouse model for MLL-AF9-driven AML (iMLL-AF9 (57)). In this model, long-term HSC (LT-HSC, Lin^−CD34^−[…] c-Kit^+ CD150^+ CD48^−) derived AML blasts closely mirror an LSC-like phenotype resulting in a particularly aggressive, Cytarabine (Ara-C) resistant AML (57). […] Moreover, relapsed AML cells arising from rLSCs after treatment with Ara-C (100 mg/kg) at d+60 were even further enriched in Lin28b expression (FIG. 2B). Additionally, levels of both, let-7a and let-7b miRNAs, negatively correlated with increased Lin28b in rLSCs (FIG. 2C) (10, 39). Our findings are consistent with papers reporting that increased Lin28 correlates with disease recurrence post chemotherapy in colon and liver cancer stem cells (22, 58).
As Lin28 is overexpressed human AML, LSCs and rLSCs, we sought to determine if genetic Lin28b or pharmacologic Lin28/let-7 inhibition via LN1632 can abrogate proliferation of LSCs and thus overcome their therapy resistance. […]

[2] = test system: 22RV1; assay: Cell viability, MTT assay, 22RV1; format: cell-based; settings: Homo sapiens, 22RV1 (Prostate), 96 hr
Description: (§1) To measure cell viability, cell titer glow (CTG, Promega CellTiter-Glo 2.0 Assay) and MTT assays (SigmaAldrich, Cell Proliferation Kit I) were performed. Briefly, cells were serum starved overnight prior to seeding in 96-well plates. Following 24 h incubation, cells were treated with increasing concentrations of JGJ compounds for 96 hr. At assay read-out, CellTiter-Glo reagent was added and luminescence was measured after 10-minutes incubation at room temperature. For the MTT assay, MTT labeling reagent was added and incubated for 4 h. Subsequently, medium was removed and 50 μL DMSO was added to solubilize the crystals, and absorbance was measured at 570 nm. Cell viability was calculated as (Sample-Background)/(Control-Background).

[3] = test system: 22RV1; assay: Cell viability, CellTiter-Glo (CTG), 22RV1; format: cell-based; settings: Homo sapiens, 22RV1 (Prostate), 96 hr
Description: as §1

[4] = test system: MDA-MB231; assay: Cell viability, CTG, MDA-MB231; format: cell-based; settings: Homo sapiens, MDA-MB-231, MDA-MB231 (Breast)
Description: as §1, with “(Sample-Background)/(Control-Background). Current standard of care drugs, Enzalutamide, Palbociclib and Cetuximab were used as comparative controls.” for “(Sample-Background)/(Control-Background).”

[5] = test system: MCF7; assay: Cell viability, CTG, MCF7; format: cell-based; settings: Homo sapiens, MCF7 (Breast)
Description: as §1, with “(Sample-Background)/(Control-Background). Current standard of care drugs, Enzalutamide, Palbociclib and Cetuximab were used as comparative controls.” for “(Sample-Background)/(Control-Background).”

[6] = test system: HCT-116; assay: Cell viability, CTG, HCT-116; format: cell-based; settings: Homo sapiens, HCT-116 (Colon)
Description: as §1, with “(Sample-Background)/(Control-Background). Current standard of care drugs, Enzalutamide, Palbociclib and Cetuximab were used as comparative controls.” for “(Sample-Background)/(Control-Background).”

[7] = test system: SW620; assay: Cell viability, MTT assay, SW620; format: cell-based; settings: Homo sapiens, SW-620, SW620 (Colon)
Description: as §1, with “(Sample-Background)/(Control-Background). Current standard of care drugs, Enzalutamide, Palbociclib and Cetuximab were used as comparative controls.” for “(Sample-Background)/(Control-Background).”

[8] = test system: SW620; assay: Cell viability, CTG, SW620; format: cell-based; settings: Homo sapiens, SW-620, SW620 (Colon)
Description: as §1, with “(Sample-Background)/(Control-Background). Current standard of care drugs, Enzalutamide, Palbociclib and Cetuximab were used as comparative controls.” for “(Sample-Background)/(Control-Background).”

[9] = test system: SW480; assay: Cell viability, MTT assay, SW480; format: cell-based; settings: Homo sapiens, SW480 (Colon)
Description: as §1, with “(Sample-Background)/(Control-Background). Current standard of care drugs, Enzalutamide, Palbociclib and Cetuximab were used as comparative controls.” for “(Sample-Background)/(Control-Background).”

[10] = test system: SW480; assay: Cell viability, CTG, SW480; format: cell-based; settings: Homo sapiens, SW480 (Colon)
Description: as §1

[11] = test system: ASPC-1; assay: Cell viability, CTG, ASPC-1; format: cell-based; settings: Homo sapiens, ASPC1, ASPC-1 (Pancreatic)
Description: as §1, with “(Sample-Background)/(Control-Background). Current standard of care drugs, Enzalutamide, Palbociclib and Cetuximab were used as comparative controls.” for “(Sample-Background)/(Control-Background).”

[12] = test system: CAPAN-1; assay: Cell viability, CTG, CAPAN-1; format: cell-based; settings: Homo sapiens, CAPAN-1 (Pancreatic)
Description: as §1, with “(Sample-Background)/(Control-Background). Current standard of care drugs, Enzalutamide, Palbociclib and Cetuximab were used as comparative controls.” for “(Sample-Background)/(Control-Background).”

[13] = Caco2 permeability; format: in vitro ADME; settings: human, Caco-2, Conc. 5 uM
[14] = Microsomal stability, CD-1 Mouse; format: in vitro ADME; settings: Conc. 5 uM
[15] = Microsomal stability, Human; format: in vitro ADME; settings: Conc. 5 uM
[16] = biological target: T1, CYP 1A2 (Homo sapiens, UniProt P05177); assay: CYP inhibition 1A2; format: in vitro ADME; design: unit not given here; settings: Conc. 10 uM
T1 sequence (P05177 1-516): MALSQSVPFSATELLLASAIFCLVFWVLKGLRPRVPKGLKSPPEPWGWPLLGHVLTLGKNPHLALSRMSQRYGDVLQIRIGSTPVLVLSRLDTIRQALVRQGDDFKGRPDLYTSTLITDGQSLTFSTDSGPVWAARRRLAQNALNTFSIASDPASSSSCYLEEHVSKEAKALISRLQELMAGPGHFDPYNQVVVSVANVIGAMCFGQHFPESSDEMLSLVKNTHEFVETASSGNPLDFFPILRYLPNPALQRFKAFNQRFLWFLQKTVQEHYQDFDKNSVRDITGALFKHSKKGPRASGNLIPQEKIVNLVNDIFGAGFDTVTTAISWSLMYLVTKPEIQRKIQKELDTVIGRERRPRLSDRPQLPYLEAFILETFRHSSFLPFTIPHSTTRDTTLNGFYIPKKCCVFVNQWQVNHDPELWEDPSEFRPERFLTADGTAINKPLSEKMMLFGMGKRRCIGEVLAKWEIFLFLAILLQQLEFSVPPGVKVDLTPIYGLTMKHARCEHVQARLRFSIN

[17] = biological target: T2, CYP 2B6 (Homo sapiens, UniProt P20813); assay: CYP inhibition 2B6; format: in vitro ADME; design: unit not given here; settings: Conc. 10 uM
T2 sequence (P20813 1-491): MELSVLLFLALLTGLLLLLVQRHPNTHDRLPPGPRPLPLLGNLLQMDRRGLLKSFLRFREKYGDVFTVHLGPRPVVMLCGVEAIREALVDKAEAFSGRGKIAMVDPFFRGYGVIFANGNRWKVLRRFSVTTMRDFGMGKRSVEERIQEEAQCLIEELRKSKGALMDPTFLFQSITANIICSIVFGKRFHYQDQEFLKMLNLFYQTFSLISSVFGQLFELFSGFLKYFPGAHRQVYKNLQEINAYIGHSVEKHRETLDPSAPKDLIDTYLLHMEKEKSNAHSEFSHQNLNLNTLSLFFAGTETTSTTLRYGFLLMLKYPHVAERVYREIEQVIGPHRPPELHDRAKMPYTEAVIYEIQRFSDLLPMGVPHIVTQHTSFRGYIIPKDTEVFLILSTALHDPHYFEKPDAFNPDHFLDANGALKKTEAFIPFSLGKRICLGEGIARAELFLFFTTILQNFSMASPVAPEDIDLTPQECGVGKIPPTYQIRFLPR

[18] = biological target: T3, CYP 2C8 (Homo sapiens, UniProt P10632); assay: CYP inhibition 2C8; format: in vitro ADME; design: unit not given here; settings: Conc. 10 uM
T3 sequence (P10632 1-490): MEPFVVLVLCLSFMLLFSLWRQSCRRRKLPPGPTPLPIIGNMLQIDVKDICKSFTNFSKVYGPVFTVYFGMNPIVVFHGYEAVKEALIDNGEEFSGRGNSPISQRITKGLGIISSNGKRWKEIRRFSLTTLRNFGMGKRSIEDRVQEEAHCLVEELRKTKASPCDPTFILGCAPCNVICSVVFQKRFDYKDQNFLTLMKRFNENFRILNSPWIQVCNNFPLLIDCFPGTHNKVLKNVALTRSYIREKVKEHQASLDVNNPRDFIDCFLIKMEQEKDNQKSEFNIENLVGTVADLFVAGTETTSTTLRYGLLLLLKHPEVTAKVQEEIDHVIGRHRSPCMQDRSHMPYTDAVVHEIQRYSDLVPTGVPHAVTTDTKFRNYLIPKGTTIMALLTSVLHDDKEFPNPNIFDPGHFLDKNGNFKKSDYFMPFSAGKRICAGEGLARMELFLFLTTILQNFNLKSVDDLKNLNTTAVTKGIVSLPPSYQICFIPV

[19] = biological target: CYP 2C9 (Homo sapiens, UniProt P11712); assay: CYP inhibition 2C9; format: in vitro ADME; design: unit not given here; settings: Conc. 10 uM
[20] = biological target: CYP 2C19 (Homo sapiens, UniProt P33261); assay: CYP inhibition 2C19; format: in vitro ADME; design: unit not given here; settings: Conc. 10 uM
[21] = biological target: CYP 2D6 (Homo sapiens, UniProt P10635); assay: CYP inhibition 2D6; format: in vitro ADME; design: unit not given here; settings: Conc. 10 uM
[22] = test system: MYC-driven cancers; assay: Cell viability and cell counting assays in cancer cells; format: cell-based; settings: TNBC, CRPC, lung and colorectal adenocarcinoma cells
Description: To test whether LN1632 and novel analogs thereof affect cancer cell growth, cell viability and cell counting assays in TNBC (FIG. 14B-D), castration resistant prostate cancer cells (CRPC, FIG. 15A-C) and colorectal cancer cells (CRC, FIG. 15A-C) were performed.
as §1, with “(Sample-Background)/(Control-Background). Current standard of care drugs, Enzalutamide, Palbociclib and Cetuximab were used as comparative controls.” for “(Sample-Background)/(Control-Background).”

[23] = test system: BT-549; assay: Cell viability, MTT assay, BT-549; format: cell-based; settings: Homo sapiens, BT-549 (Breast)
Description: as §1, with “(Sample-Background)/(Control-Background). Current standard of care drugs, Enzalutamide, Palbociclib and Cetuximab were used as comparative controls.” for “(Sample-Background)/(Control-Background).”

[24] = test system: MCF7; assay: Cell viability, MTT assay, MCF7; format: cell-based; settings: Homo sapiens, MCF7 (Breast)
Description: as §1, with “(Sample-Background)/(Control-Background). Current standard of care drugs, Enzalutamide, Palbociclib and Cetuximab were used as comparative controls.” for “(Sample-Background)/(Control-Background).”

[25] = microsomes, read-out: Microsomal stability T½

Chain of CYP 2D6 (P10635 whole entry): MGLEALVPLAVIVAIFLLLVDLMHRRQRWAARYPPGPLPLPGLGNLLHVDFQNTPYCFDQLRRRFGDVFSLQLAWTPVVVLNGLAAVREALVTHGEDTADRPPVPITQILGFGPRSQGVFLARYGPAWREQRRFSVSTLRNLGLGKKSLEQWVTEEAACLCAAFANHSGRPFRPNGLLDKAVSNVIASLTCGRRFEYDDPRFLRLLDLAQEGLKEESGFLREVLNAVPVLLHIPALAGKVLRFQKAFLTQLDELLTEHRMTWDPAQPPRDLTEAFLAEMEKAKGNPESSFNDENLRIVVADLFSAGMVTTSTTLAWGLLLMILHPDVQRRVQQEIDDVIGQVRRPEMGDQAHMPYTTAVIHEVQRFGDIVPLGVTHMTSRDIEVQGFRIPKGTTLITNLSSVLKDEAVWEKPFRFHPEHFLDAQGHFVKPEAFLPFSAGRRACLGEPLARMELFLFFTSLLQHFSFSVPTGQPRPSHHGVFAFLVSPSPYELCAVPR
Chain of CYP 2C19 (P33261 whole entry): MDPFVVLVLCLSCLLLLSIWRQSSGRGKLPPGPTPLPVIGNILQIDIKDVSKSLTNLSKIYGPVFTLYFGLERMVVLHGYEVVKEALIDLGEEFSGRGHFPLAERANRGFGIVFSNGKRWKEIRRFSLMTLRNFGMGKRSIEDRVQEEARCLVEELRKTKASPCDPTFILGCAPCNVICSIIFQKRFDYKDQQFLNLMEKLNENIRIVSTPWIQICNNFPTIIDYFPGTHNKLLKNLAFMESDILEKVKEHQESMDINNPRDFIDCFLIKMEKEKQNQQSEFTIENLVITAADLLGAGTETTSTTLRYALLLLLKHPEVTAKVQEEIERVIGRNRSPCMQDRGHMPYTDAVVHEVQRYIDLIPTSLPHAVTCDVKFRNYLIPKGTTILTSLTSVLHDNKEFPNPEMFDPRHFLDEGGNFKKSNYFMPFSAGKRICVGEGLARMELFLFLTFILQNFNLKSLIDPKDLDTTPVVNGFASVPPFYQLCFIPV
Chain of CYP 2C9 (P11712 whole entry): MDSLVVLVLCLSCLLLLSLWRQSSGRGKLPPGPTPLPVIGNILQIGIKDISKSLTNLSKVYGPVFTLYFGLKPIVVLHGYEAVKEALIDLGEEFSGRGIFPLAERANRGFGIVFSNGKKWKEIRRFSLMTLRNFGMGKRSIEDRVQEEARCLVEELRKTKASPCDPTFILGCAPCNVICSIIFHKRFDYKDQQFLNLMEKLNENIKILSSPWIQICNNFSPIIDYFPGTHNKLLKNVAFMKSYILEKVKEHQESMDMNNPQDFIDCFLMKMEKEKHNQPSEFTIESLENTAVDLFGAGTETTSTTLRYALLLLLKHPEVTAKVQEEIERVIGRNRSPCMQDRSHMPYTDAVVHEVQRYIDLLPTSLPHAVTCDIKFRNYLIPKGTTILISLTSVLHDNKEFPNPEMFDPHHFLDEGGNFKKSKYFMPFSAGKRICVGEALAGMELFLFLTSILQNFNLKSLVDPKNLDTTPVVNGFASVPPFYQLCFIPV

## Nc1ccn([C@@H]2O[C@H](CO)[C@@H](O)[C@@H]2O)c(=O)n1 [Ara-C, Cytarabine]
[1]
  Colony forming capacity cell numbers (CFCs) of LSCs: did not alter colony forming capacity cell numbers (CFCs)

## CC(=O)Nc1cc(F)cc(-c2ccc3[nH]cc(-c4ccccc4)c3n2)c1 [JGJ037, N-(3-Fluoro-5-(3-phenyl-1H-pyrrolo[3,2-b]pyridin-5-yl)phenyl)acetamide]
[2]
  IC50: 2 µM
[3]
  IC50: 3 µM
[4]
  IC50: 11 µM
[5]
  IC50: 15 µM
[6]
  IC50: 76 µM
[7]
  IC50: 8.5 µM
[8]
  IC50: 15 µM
[9]
  IC50: 26 µM
[10]
  IC50: 39 µM
[11]
  IC50: 31 µM
[12]
  IC50: 22 µM
[13]
  Papp A→B at 5 uM: 0.44 ×10⁻⁶ cm/s
  Papp B→A at 5 uM: 1.69 ×10⁻⁶ cm/s
  efflux ratio at 5 uM: 3.9
[13]; read-out: Caco2 Mean A-B % Recovery
  recovery at 5 uM: 47%
[14]
  Microsomal stability % Remaining at T30: T30 = 78.6%
[14]; microsomes
  microsomal CLint at 5 uM: 14.9 µL/min/mg
[14]; [25]
  half-life at 5 uM: 1.55 h
[15]
  Microsomal stability % Remaining at T30: T30 = 91.2%
[15]; microsomes
  microsomal CLint at 5 uM: 11.6 µL/min/mg
[15]; [25]
  half-life at 5 uM: > 2 h
[16]
  CYP inhibition 1A2: 88.9
[17]
  CYP inhibition 2B6: 69.6
[18]
  CYP inhibition 2C8: 90.5
[19]
  CYP inhibition 2C9: 86.6
[20]
  CYP inhibition 2C19: 98.3
[21]
  CYP inhibition 2D6: 93.9
[22]
  Proliferation and apoptosis of cancer cells: reduced proliferation and induced apoptosis preferentially in MYC-driven cancers

## CC(=O)c1c(C)c2cnc(Nc3ccc(N4CCNCC4)cn3)nc2n(C2CCCC2)c1=O [Palbociclib, reference compound]
[23]
  IC50: 72 µM
[4]
  IC50: 13 µM
[24]
  IC50: 5 µM
[5]
  IC50: 32 µM
